Source: US6596863B2, “Medical composition containing nitroetheneamine Derivative or salt there of as active constituent” (Ishihara Sangyo Kaisha, Ltd., priority 1998, dated 2003)
Read-outs that look alike come from different tables or passages of the source.

Legend:
[1] = target: T1, human MMP-9 (gelatinase B) (Homo sapiens, UniProt P14780); experiment: Inhibition activity against human MMP-9 (gelatinase B), fluorescent peptide substrate; assay type: biochemical; settings: compounds of the formula (I)
T1 construct: endogenous in cells; host or cells: HT1080 human fibrosarcoma cells (ATCC CCL-121), PMA-stimulated; enzyme purified from the culture supernatant
T1 sequence (P14780 107-707 limits assumed): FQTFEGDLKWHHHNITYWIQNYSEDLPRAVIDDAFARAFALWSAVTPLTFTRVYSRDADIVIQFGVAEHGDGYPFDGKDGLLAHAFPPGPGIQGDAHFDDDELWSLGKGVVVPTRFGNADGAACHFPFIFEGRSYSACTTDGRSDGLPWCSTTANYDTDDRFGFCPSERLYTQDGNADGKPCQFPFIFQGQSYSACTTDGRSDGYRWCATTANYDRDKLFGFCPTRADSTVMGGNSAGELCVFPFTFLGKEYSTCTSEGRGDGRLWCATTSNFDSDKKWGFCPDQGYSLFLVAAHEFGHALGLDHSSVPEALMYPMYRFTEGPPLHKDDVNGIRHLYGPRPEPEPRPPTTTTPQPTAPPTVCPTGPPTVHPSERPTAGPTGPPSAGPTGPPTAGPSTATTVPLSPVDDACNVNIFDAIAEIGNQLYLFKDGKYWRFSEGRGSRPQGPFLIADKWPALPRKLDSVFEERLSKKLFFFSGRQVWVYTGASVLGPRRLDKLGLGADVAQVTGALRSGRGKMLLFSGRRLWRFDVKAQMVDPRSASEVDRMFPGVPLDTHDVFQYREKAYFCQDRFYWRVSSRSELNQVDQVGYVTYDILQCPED
Outline: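 MMP-9 purified from PMA-stimulated (10 ng/ml) HT1080 supernatant, or commercial enzyme (0.0125-0.025 unit/ml or 0.2 μg/ml final), incubated with compound and 10 μM final Mca-Pro-Leu-Gly-Leu-Dpa-Ala-Arg-NH2 fluorescent substrate at 37 °C for 3 h in the dark. Precursor enzyme activated with APMA.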

[2] = 1st measurement, read-out: MMP-9 inhibition activities IC50, 1st
[3] = 2nd measurement, read-out: MMP-9 inhibition activities IC50, 2nd
[4] = average of 1st and 2nd (or single measurement), read-out: MMP-9 inhibition activities IC50, Average

IC50 [1, 2] [µM]	IC50 [1, 3] [µM]	IC50 [1, 4] [µM]	melting point	Compound
10.1	15.8	13	192 °C (dec.)	CNC(=C[N+](=O)[O-])NNc1cc(C(F)(F)F)cc(SC)n1 [compound 125]
29.4	21.8	25.6	141 °C (dec.)	CNC(=C[N+](=O)[O-])NNc1cc(C(F)(F)F)cc(Oc2ccccc2)n1 [compound 126]
19.2	10.3	13	93 to 95 °C	CNC(=C[N+](=O)[O-])NNc1cc(C(F)(F)F)cc(OCC2CCCCO2)n1 (centres unmarked) [compound 128]
11.8	6.7	9.3	97 to 99 °C	CNC(=C[N+](=O)[O-])NNc1cc(C(F)(F)F)cc(OCC2CCCO2)n1 (centres unmarked) [compound 129]
7.7	8.4	8.1	175 °C (dec.)	C=CCOc1cc(C(F)(F)F)cc(NNC(=C[N+](=O)[O-])NC)n1 [compound 130]
2	3	2.5	165 °C (dec.)	CNC(=C[N+](=O)[O-])NNc1cc(C(F)(F)F)cc(C)n1 [compound 131]
7.9		7.9	170 to 173 °C (dec.)	O=[N+]([O-])C=C(NNc1cc(C(F)(F)F)cc(Cl)n1)NS(=O)(=O)c1ccccc1 [compound 159]
9.4		9.4	175 to 178 °C (dec.)	COCCNC(=C[N+](=O)[O-])NNc1cc(C(F)(F)F)cc(Cl)n1 [compound 160]
6		6	114 to 119 °C (dec.)	CCS(=O)(=O)NC(=C[N+](=O)[O-])NNc1cc(C(F)(F)F)cc(Cl)n1 [compound 161]
6.3		6.3	171 to 174 °C	O=[N+]([O-])C=C(NNc1cc(C(F)(F)F)cc(Cl)n1)NS(=O)(=O)c1ccc(-c2ccccc2)cc1 [compound 162]
3.2		3.2	30 to 33 °C	CC(=C(NNc1cc(C(F)(F)F)cc(Cl)n1)NS(C)(=O)=O)[N+](=O)[O-] [compound 165]
7.1	7.3	7.2	197 °C (dec.)	CNC(=C[N+](=O)[O-])NNc1cccc(C(F)(F)F)n1 [compound 168]
6	9.6	7.8	164 °C (dec.)	O=[N+]([O-])C=C(NCC1CCCO1)NNc1cc(C(F)(F)F)cc(Cl)n1 (centres unmarked) [compound 169]
9		9	162 °C (dec.)	CNC(=C[N+](=O)[O-])NNc1cc(C(F)(F)F)cc(OCc2ccccc2Cl)n1 [compound 174]
10.7	6.1	8.4	169 °C (dec.)	CCCCOc1cc(C(F)(F)F)cc(NNC(=C[N+](=O)[O-])NC)n1 [compound 177]
11.8	12.5	12.2	161 °C (dec.)	CCCCOc1cc(C(F)(F)F)cc(NNC(=C[N+](=O)[O-])NC)n1 [compound 178]
11.6		11.6	180 °C (dec.)	CNC(=C[N+](=O)[O-])NNc1cc(C(F)(F)F)cc(OCC(F)(F)F)n1 [compound 181]
7	5.6	6.4	138 °C	CNC(=C[N+](=O)[O-])NNc1cc(OCCOC)cc(C(F)(F)F)c1 [compound 182]
20	10.6	15.3	167 °C (dec.)	CNC(=C[N+](=O)[O-])NNc1cc(C(F)(F)F)cc(OCC2CC2)n1 [compound 184]
6.2		6.2	166 °C (dec.)	CNC(=C[N+](=O)[O-])NNc1cc(C(F)(F)F)cc(OCCN2CCOCC2)n1 [compound 188]
11.1		11.1	94 °C	CNC(=C[N+](=O)[O-])NNc1cc(C(F)(F)F)cc(OCCSC)n1 [compound 189]
8.1	13.6	10.9	128 °C	CCCCOCCOc1cc(C(F)(F)F)cc(NNC(=C[N+](=O)[O-])NC)n1 [compound 192]
10.5		10.5	170 °C (dec.)	CNC(=C[N+](=O)[O-])NNc1cc(C(F)(F)F)cc(OCCOC(C)(C)C)n1 [compound 193]
4.9	8.4	6.7	128 °C	CNC(=C[N+](=O)[O-])NNc1cc(C(F)(F)F)cc(OCCOCCOC)n1 [compound 194]
11.2		11.2	167 °C (dec.)	CNC(=C[N+](=O)[O-])NNc1cc(C(F)(F)F)cc(OCCOC(C)C)n1 [compound 196]

The remaining lines, values behind:

Compound	IC50 [1, 2] [µM]	IC50 [1, 3] [µM]	IC50 [1, 4] [µM]	melting point
CNC(=C[N+](=O)[O-])NNc1ccc2ccccc2n1 [compound 127]	1.4	2.8	2.1	202 °C (dec.)
CNC(=C[N+](=O)[O-])NNc1nc2ccccc2s1 [compound 132]	1.2	2.4	1.8	158 °C (dec.)
CNC(=C[N+](=O)[O-])NN=Cc1ccc2ccccc2c1 [compound 135]	28.2	20.4	24.3	190 °C (dec.)
CNC(=C[N+](=O)[O-])NN=Cc1ccc(Cl)cc1 [compound 136]	21.3	29.2	25.3	186 °C (dec.)
CNC(=C[N+](=O)[O-])NN=Cc1ccc(C)cc1 [compound 137]	17.7	37.1	27.4	172 °C (dec.)
CNC(=C[N+](=O)[O-])NN=Cc1ccc([N+](=O)[O-])cc1 [compound 138]	22.3	15.7	19	232 °C (dec.)
CNC(=C[N+](=O)[O-])NN=Cc1ccc2c(c1)OCO2 [compound 140]	22.3	21.9	22.6	180 °C (dec.)
CNC(=C[N+](=O)[O-])NN=Cc1ccc2c(c1)OCCO2 [compound 141]	19.9	18.1	19	179 °C (dec.)
CNC(=C[N+](=O)[O-])NN=Cc1ccc(C(=O)O)cc1 [compound 142]	20.4	22.4	21.4	210 °C (dec.)
CNC(=C[N+](=O)[O-])NN=CC=Cc1ccccc1 [compound 144]	4.8	14.9	9.9	180 °C (dec.)
CNC(=C[N+](=O)[O-])NNc1cccc(Cl)n1 [compound 145]	1.7	4.1	2.9	221 °C (dec.)
CNC(=C[N+](=O)[O-])NNc1ccnc2cc(Cl)ccc12 [compound 146]	18.4	29.4	23.9	210 °C (dec.)
CNC(=C[N+](=O)[O-])NNc1ccnc2cc(C(F)(F)F)ccc12 [compound 147]	35	39.9	37.5	235 °C (dec.)
CNC(=C[N+](=O)[O-])NNc1nc(-c2ccccc2)nc2ccccc12 [compound 148]	33.5	21.7	27.6	272 °C (dec.)
CNC(=C[N+](=O)[O-])NNS(=O)(=O)c1cccc2ccccc12 [compound 150]	14.8	11.4	13.1	168 °C (dec.)
NNC(=C[N+](=O)[O-])Nc1ccc2cn[nH]c2c1 [compound 152]	29.6	16.3	23	209 to 213 °C (dec.)
NNC(=C[N+](=O)[O-])NS(=O)(=O)c1ccccc1 [compound 156]	38.3	41.8	40.1	210 °C (dec.)
CNC(=C[N+](=O)[O-])NN=Cc1ccc(C(F)(F)F)cc1 [compound 166]	7.8		7.8	188 to 189 °C
CNC(=C[N+](=O)[O-])NN=Cc1cccc(C(F)(F)F)c1 [compound 167]	14		14	180 °C
CNC(=C[N+](=O)[O-])NNc1ncnc2c(C)csc12 [compound 170]	5.6		5.6	216 °C (dec.)
CNC(=C[N+](=O)[O-])NNc1ccc(Cl)cn1 [compound 172]	0.82	1.1	0.96	206 °C (dec.)
CNC(=C[N+](=O)[O-])NN=Cc1ncc(C(F)(F)F)cc1Cl [compound 179]	8.3		8.3	171 °C (dec.)
CNC(=C[N+](=O)[O-])NNc1c(Cl)cncc1Cl [compound 186]	12.3		12.3	197 °C (dec.)
CNC(=C[N+](=O)[O-])NNc1cc(C(F)(F)F)cc(OCCSc2ccccc2)n1 [compound 195]	11.6		11.6	170 °C (dec.)
